Data: ChEMBL document CHEMBL1131707, “Methionyl adenylate analogues as inhibitors of methionyl-tRNA synthetase” (1999)
≈ marks a conversion by molar mass, not a printed value.

How the values were obtained:
Klebsiella pneumoniae = test: Antibacterial activity of compound was determined against Klebsiella pneumoniae 2011E; assay type: functional
Bacillus cereus = test: Antibacterial activity of compound was determined against Bacillus cereus ATCC 27348; assay type: functional
Staphylococcus aureus = test: Antibacterial activity of compound was determined against Staphylococcus aureus 1538p; assay type: functional
Salmonella typhimurium = test: Antibacterial activity of compound was determined against Salmonella Typhimurium 14028; assay type: functional, Salmonella enterica subsp. enterica serovar Typhimurium; conditions: Salmonella enterica
Pseudomonas aeruginosa = test: Antibacterial activity of compound was determined against Pseudomonas aeruginosa 1912; assay type: functional
[1] = system: Staphylococcus epidermidis; test: Antibacterial activity of compound was determined against […] 887E; assay type: functional
Escherichia coli = test: Antibacterial activity of compound was determined against Escherichia coli JM109; assay type: functional
Klebsiella aerogenes = test: Antibacterial activity of compound was determined against Klebsiella aerogenes 1976E; assay type: functional

SMILES	MIC (Klebsiella pneumoniae)	MIC (Bacillus cereus)	MIC (Staphylococcus aureus)	MIC (Salmonella typhimurium)	MIC (Pseudomonas aeruginosa)	MIC [1]	MIC (Escherichia coli)	MIC (Klebsiella aerogenes)
CSCC[C@H](N)C(=O)NC[C@H]1OC(n2cnc3c(N)ncnc32)[C@H](O)[C@@H]1O (stereo not given in full)	> 64 µg/mL	> 64 µg/mL	> 64 µg/mL	> 64 µg/mL	> 64 µg/mL	> 64 µg/mL	1 µg/mL (≈ 2.52 µM)	> 64 µg/mL
CSCC[C@H](N)C(=O)N(O)C[C@H]1OC(n2cnc3c(N)ncnc32)[C@H](O)[C@@H]1O (stereo not given in full)	> 64 µg/mL	8 µg/mL (≈ 19.3 µM)	> 64 µg/mL	> 64 µg/mL	> 64 µg/mL	> 64 µg/mL	0.5 µg/mL (≈ 1.21 µM)	> 64 µg/mL

Now from value to compound:

MIC (Klebsiella pneumoniae)	MIC (Bacillus cereus)	MIC (Staphylococcus aureus)	MIC (Salmonella typhimurium)	MIC (Pseudomonas aeruginosa)	MIC [1]	MIC (Escherichia coli)	MIC (Klebsiella aerogenes)	SMILES
> 64 µg/mL	> 64 µg/mL	> 64 µg/mL	8 µg/mL (≈ 48.7 µM)	> 64 µg/mL	> 64 µg/mL	0.5 µg/mL (≈ 3.04 µM)	4 µg/mL (≈ 24.4 µM)	CSCC[C@H](N)C(=O)NO
> 64 µg/mL	32 µg/mL (≈ 80.3 µM)	> 64 µg/mL	> 64 µg/mL	> 64 µg/mL	> 64 µg/mL	0.5 µg/mL (≈ 1.25 µM)	> 64 µg/mL	CSCC[C@H](N)C(=O)OC[C@H]1O[C@@H](n2cnc3c(N)ncnc32)[C@H](O)[C@@H]1O
> 64 µg/mL	> 64 µg/mL	> 64 µg/mL	> 64 µg/mL	> 64 µg/mL	> 64 µg/mL	8 µg/mL (≈ 19.3 µM)	> 64 µg/mL	CSCC[C@H](N)C(=O)NOC[C@H]1OC(n2cnc3c(N)ncnc32)[C@H](O)[C@@H]1O (stereo not given in full)
